For one experiment, the target named is Human SCD-1 (Homo sapiens (Human), UniProt O00767). Description: Human SCD-1 enzyme activity using HepG2 cell microsomes (conversion of stearic acid to oleic acid). It is filed as biochemical. The settings on record: 20 minutes at 37° C., relative to 0.1% DMSO vehicle, read-out: HSCD-1 (HEPG2) IC50. The protocol: Human SCD-1 enzyme activity using HepG2 cell microsomes after treating with inhibitory compounds (% inhibition):
Human hepatocarcinoma HepG2 cells (ATCC, HB-8065) are cultured to confluence and trypsinised. The cell pellet is taken up with 10 mM Tris (pH 7.4) sucrose (250 mM) DTT (1 mM) buffer and the cells are lysed by sonication. The microsomes are obtained after centrifugation at 10,000 g for 20 minutes at 4° C. followed by centrifugation of the supernatant at 100,000 g for 60 minutes at 4° C. The pellet is taken up with 10 mM Tris (pH 7.4) sucrose (250 mM) buffer at 4° C. and the microsomal proteins are assayed and stored at −196° C. (liquid nitrogen).
The enzyme reaction measures the conversion of stearic acid (C18:0 fatty acid) to oleic acid (C18:1 fatty acid) by SCD-1. The enzyme reaction is started by adding 125 μg of HepG2 cell microsomal fraction to tubes (total reaction volume of 500 μl) containing 62 μM of stearic acid (45 μM of stearic acid 17 μM of [^14C] stearic acid) in a 100 mM phosphate buffer (pH 7.16) with 7.2 mM of ATP, 0.54 mM of CoA, 6 mM of MgCl2, 0.8 mM of NADH and the inhibitory compound or the vehicle (0.1% DMSO). The tubes are incubated for 20 minutes at 37° C. and the enzyme reaction is stopped by adding KOH (12%) and saponification for 30 minutes at 80° C. After acidification (3N HCl), the fatty acids are extracted twice with ethyl ether, evaporated in nitrogen before being taken up with methanol/dichloromethane (3:1). The reaction product (C18:1) is separated from the reaction substrate (C18:0) by HPLC (Perkin Elmer, C18 reverse phase column) coupled with an online radioactivity detector (FlowOne). The enzyme activity is calculated in picomoles of stearic acid converted into oleic acid per minute and per mg of protein. For each inhibitory compound, an IC50 is determined in relation to the reference enzyme activity (0.1% DMSO vehicle). Sterculic acid is the reference inhibitory compound (Gomez F. E., Bauman D. E., Ntambi J. M., Fox B. G. Effects of sterculic acid on stearoyl-CoA desaturase in differentiating 3T3-L1 adipocytes. Biochem Biophys Res Commun. 300 316-326 (2003).

Another experiment has as its system sebaceous glands. Description: Topical application of SCD-1 inhibitory compounds to NMRI mice: reduction in number and size of sebaceous glands. It counts as in vivo. To be noted: Mus musculus, 120 h, twice daily, treatment time 5 days; for inhibition in vivo at 1 %: concentration 1%; for inhibition in vivo at 0.3 %: concentration 0.3%. The protocol:
Topical application of SCD-1 inhibitory compounds to NMRI mice: reduction in number and size of sebaceous glands.
Experimental protocol: Crl:NMRI male mice (24-26 g) are shaved (2×2 cm^2 minimum) 2-3 days before the first application of molecules under test. To prevent potential oral intake of the molecules, the animals are accommodated individually.
The molecules are solubilised in the ethanol/propylene glycol (30/70, v/v) vehicle are a maximum concentration of 1%. 50 μl of each preparation (molecule under test, or vehicle) are applied twice daily for 5 consecutive days on the 2 cm^2 shaved area, with the cone of a pipette with a number of to-and-fro movements. At least 6 hours after the final application, the mice are euthanised, the skin samples are taken and fixed immediately to produce paraffin sections; a histomorphometric analysis after Haematoxylin/Eosin staining is carried out.
For each animal, at least 3 sections approximately 10 mm in length are read blind by 3 people, and the efficacy of the molecules on sebaceous gland atrophy is assessed quantitatively (number) and qualitatively (relative score, size). The duration of action, the reversibility of the effect are verified in the same way by modifying the application sequences.

Another experiment concerns HCT-116 tumour cells. Description: Cytotoxic / anti-proliferation activity on human colon cancer cell line HCT-116 (ATP-lite). It is filed as cell-based. To be noted: 72 hours. The protocol: Cytotoxic activities with respect to human colon cancer cell lines (HCT-116):
HCT-116 tumour cells are inoculated in a 96-well plate in RPMI 1640 medium to which 5% foetal calf serum is added (100 μl/well, respectively at 1.5 10^4 cells/ml). After 24 hours of incubation at 37° C. in an incubator at 5% CO2, 11 μl of medium containing the compound under test at a concentration 10 times greater than the final concentration are added. The plates are incubated for a further 72 hours. Cell survival is evaluated by measuring the luminescence after releasing ATP in the medium using the cell lysis, luciferase and luciferin solutions contained in the ATP-lite-M™ kit as recommended by the manufacturer (Packard, Rungis, France). Each experimental condition was replicated at least three times independently with one well reading in sextuplet per dose interval.

Where [1] appears, read: HCT-116, HTC116 human tumour line, read-out: EC50 (anti-proliferation activity).
[2] abbreviates: Homo sapiens, HCT-116 tumour line cells, read-out: 50% inhibitory concentration (EC50), concentration inhibiting cell proliferation by 50%.

Where two headings read alike, the source gives them in different places.

Human SCD-1, sequence (O00767 whole entry): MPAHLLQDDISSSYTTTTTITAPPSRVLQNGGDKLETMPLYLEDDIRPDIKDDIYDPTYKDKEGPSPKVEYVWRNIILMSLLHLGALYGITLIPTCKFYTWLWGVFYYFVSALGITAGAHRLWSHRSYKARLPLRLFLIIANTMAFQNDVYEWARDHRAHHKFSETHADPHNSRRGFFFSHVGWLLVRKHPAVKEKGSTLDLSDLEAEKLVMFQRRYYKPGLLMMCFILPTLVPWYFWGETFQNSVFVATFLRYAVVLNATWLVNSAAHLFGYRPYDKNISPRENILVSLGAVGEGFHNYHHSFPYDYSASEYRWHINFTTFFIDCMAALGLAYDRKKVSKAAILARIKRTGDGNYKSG

Turning to `FC(F)(F)c1ccc(Cl)c(OC2CCN(c3nccnn3)C2)c1` (stereo not drawn) [Example 42, 3-[3-(2-Chloro-5-trifluoromethyl-phenoxy)-pyrrolidin-1-yl]-[1,2,4]triazine], the IC50 at Human SCD-1 lay in the range of 0.3 to 1 µM.

Compound `FC(F)(F)c1ccc(Cl)c(OC2CCN(c3nccnn3)CC2)c1` [Example 17, 3-[4-(2-Chloro-5-trifluoromethyl-phenoxy)-piperidin-1-yl]-[1,2,4]triazine] returned an inhibition in vivo at 1 % in the experiment on sebaceous glands of 97%. The EC50 with HCT-116 tumour cells (setting [1]) and in the experiment on HCT-116 tumour cells (setting [2]) was 0.23 µM throughout. Besides, the IC50 on Human SCD-1 was 0.1 µM.

With `CCCCCCCCC1=C(CCCCCCCC(=O)O)C1` [Sterculic acid, reference compound], the IC50 at Human SCD-1 was 0.3 µM.

Consider `CC1CN(c2nccnn2)CCC1Oc1cc(C(F)(F)F)ccc1Cl` (stereo not drawn) [Example 37, 3-[4-(2-Chloro-5-trifluoromethyl-phenoxy)-3-methyl-piperidin-1-yl]-[1,2,4]triazine], for which the 50% inhibitory concentration (IC50) at Human SCD-1 is 0.1 to 1 µM.

With `Cc1cnnc(N2CCC(Oc3cc(C(F)(F)F)ccc3Cl)CC2)n1` [Example 27, 3-[4-(2-Chloro-5-trifluoromethyl-phenoxy)-piperidin-1-yl]-5-methyl-[1,2,4]triazine], the half-inhibitory concentration (IC50) on Human SCD-1 stood at 0.3 µM.

Regarding `Cc1ccccc1OC1CCN(c2nc(Cl)cn(C)c2=O)CC1` [Example 9, 5-Chloro-1-methyl-3-(4-o-tolyloxy-piperidin-1-yl)-1H-pyrazin-2-one], the inhibition in vivo at 0.3 % in the experiment on sebaceous glands stood at 43%. Further, the IC50 at Human SCD-1 lay within 0.1 to 1 µM.

As to `Cn1cc(Cl)nc(N2CCC(Oc3ccccc3Cl)CC2)c1=O` [Example 6, 5-Chloro-3-[4-(2-chloro-phenoxy)-piperidin-1-yl]-1-methyl-1H-pyrazin-2-one], in the experiment on sebaceous glands, the inhibition in vivo at 0.3 % turned out to be 79%. In addition, the 50% inhibitory concentration (IC50) on Human SCD-1 fell in the range of 0.1 to 1 µM.

In the experiment on sebaceous glands (concentration 0.1%), `Cn1nccc(N2CCC(Oc3cc(C(F)(F)F)ccc3Cl)CC2)c1=O` [Example 40, 4-[4-(2-Chloro-5-trifluoromethyl-phenoxy)-piperidin-1-yl]-2-methyl-2H-pyridazin-3-one] showed an inhibition in vivo at 0.1 % of 36%. Moreover, the IC50 on Human SCD-1 was in the range of 0.1 to 0.3 µM.

For `FC(F)(F)c1ccccc1OC1CCN(c2nccnn2)CC1` [Example 14, 3-[4-(2-Trifluoromethyl-phenoxy)-piperidin-1-yl]-[1,2,4]triazine], the IC50 on Human SCD-1 fell in the range of 0.1 to 1 µM.

With `Cc1cnnc(N2CCC(Oc3cc(F)ccc3Cl)CC2)n1` [Example 25, 3-[4-(2-Chloro-5-fluoro-phenoxy)-piperidin-1-yl]-5-methyl-[1,2,4]triazine], the IC50 on Human SCD-1 was 0.1 µM.

Consider `Cc1cnc(N2CCC(Oc3cc(F)ccc3Cl)CC2)nn1` [Example 30, 3-[4-(2-Chloro-5-fluoro-phenoxy)-piperidin-1-yl]-6-methyl-[1,2,4]triazine], for which the IC50 on Human SCD-1 was 0.1 µM.

Take `Cn1cc(Cl)nc(N2CCC(Oc3cc(F)ccc3Cl)CC2)c1=O` [Example 12, 5-Chloro-3-[4-(2-chloro-5-fluoro-phenoxy)-piperidin-1-yl]-1-methyl-1H-pyrazin-2-one]: the inhibition in vivo at 0.3 % in the experiment on sebaceous glands worked out at 94%. Besides, the EC50 in the experiment on HCT-116 tumour cells (setting [1]) and with HCT-116 tumour cells (setting [2]) was 0.06 µM in each case. For the same compound, the IC50 on Human SCD-1 lay in the range of 0.01 to 0.03 µM.

Take `FC(F)(F)c1ccccc1NC1CCN(c2nccnn2)CC1` [Example 36]: the concentration for half-maximal inhibition (IC50) on Human SCD-1 was found to be 0.03 µM.

With `Clc1ccccc1OC1CCN(c2nccnn2)CC1` [Example 13, 3-[4-(2-Chloro-phenoxy)-piperidin-1-yl]-[1,2,4]triazine], the concentration for half-maximal inhibition (IC50) at Human SCD-1 fell in the range of 0.1 to 1 µM.

In the case of `Cc1cnnc(N2CCC(Oc3ccccc3Cl)CC2)n1` [Example 28, 3-[4-(2-Chloro-phenoxy)-piperidin-1-yl]-5-methyl-[1,2,4]triazine], on Human SCD-1, the 50% inhibitory concentration (IC50) fell in the range of 0.3 to 1 µM.

Consider `CC1CN(c2nccnn2)CCC1Oc1cc(Cl)ccc1Cl` (stereo not drawn) [Example 38, 3-[4-(2,5-Dichloro-phenoxy)-3-methyl-piperidin-1-yl]-[1,2,4]triazine], for which, on Human SCD-1, the half-inhibitory concentration (IC50) fell in the range of 0.3 to 1 µM.

Turning to `O=[N+]([O-])c1ccccc1OC1CCN(c2nccnn2)CC1` [Example 35, 3-[4-(2-Nitro-phenoxy)-piperidin-1-yl]-[1,2,4]triazine], the IC50 at Human SCD-1 was 0.1 to 1 µM.

With `Cc1nnc(N2CCC(Oc3cc(C(F)(F)F)ccc3Cl)CC2)nc1C` [Example 19, 3-[4-(2-Chloro-5-trifluoromethyl-phenoxy)-piperidin-1-yl]-5,6-dimethyl-[1,2,4]triazine], the IC50 at Human SCD-1 was 0.1 to 1 µM.

With `Fc1cc(Br)c(OC2CCN(c3nccnn3)CC2)cc1F` [Example 33, 3-[4-(2-Bromo-4,5-difluoro-phenoxy)-piperidin-1-yl]-[1,2,4]triazine], the half-inhibitory concentration (IC50) at Human SCD-1 lay in the range of 0.01 to 0.1 µM.

Consider `O=[N+]([O-])c1ccc(Cl)c(OC2CCN(c3nccnn3)CC2)c1` [Example 32, 3-[4-(2-Chloro-5-nitro-phenoxy)-piperidin-1-yl]-[1,2,4]triazine], for which the half-inhibitory concentration (IC50) on Human SCD-1 was in the range of 0.03 to 0.1 µM.

Consider `Cn1cc(Cl)nc(N2CCC(Oc3cc(C(F)(F)F)ccc3Cl)CC2)c1=O` [Example 8], for which the inhibition in vivo at 0.3 % in the experiment with sebaceous glands worked out at 95%. At Human SCD-1, the concentration for half-maximal inhibition (IC50) lay in the range of 0.1 to 0.3 µM.

As to `Cn1ccnc(N2CCC(Oc3ccccc3C(F)(F)F)CC2)c1=O` [Example 11, 1-Methyl-3-[4-(2-trifluoromethyl-phenoxy)-piperidin-1-yl]-1H-pyrazin-2-one], the inhibition in vivo at 1 % in the experiment with sebaceous glands turned out to be 45%. Moreover, the IC50 at Human SCD-1 was 0.1 µM.

Turning to `Fc1ccc(Cl)c(OC2CCN(c3nccnn3)CC2)c1` [Example 18, 3-[4-(2-Chloro-5-fluoro-phenoxy)-piperidin-1-yl]-[1,2,4]triazine], at Human SCD-1, the IC50 was 0.03 µM.

In the experiment with sebaceous glands, `Cn1cc(Cl)nc(N2CCC(Oc3ccccc3C(F)(F)F)CC2)c1=O` [Example 7, 5-Chloro-1-methyl-3-[4-(2-trifluoromethyl-phenoxy)-piperidin-1-yl]-1H-pyrazin-2-one] came in with an inhibition in vivo at 0.3 % of 75%. The half-maximal inhibitory concentration (IC50) at Human SCD-1 lay within 0.1 to 0.3 µM.

These data come from patent US8962837B2, “Nitrogen heterocycle derivatives, preparation thereof and application thereof in human therapeutics” (Pierre Fabre Medicament, priority 2010, dated 2015).
